Measured values published in US4710469A, “Novel phosphotyrosyl protein phosphatase” (Merck & Co., Inc., priority 1986, dated 1987).
Where two headings read alike, the source gives them in different places.

Experiments:
[1] = target: T1, Human placental alkaline phosphatase (obtained commercially) (Homo sapiens, UniProt P05187); experiment: biochemical; settings: for % change of activity: compound at 10 μM; for % change of activity / inhibition at 10000 µM: 1 mM PNPP, glycine NaOH pH 10, MgCl2, 30°; for inhibition at 10000 µM: compound at 10 mM, read-out: % change of activity
T1 construct: purchased Worthington Biochem; host or cells: human placenta
T1 sequence (P05187 23-506 limits assumed): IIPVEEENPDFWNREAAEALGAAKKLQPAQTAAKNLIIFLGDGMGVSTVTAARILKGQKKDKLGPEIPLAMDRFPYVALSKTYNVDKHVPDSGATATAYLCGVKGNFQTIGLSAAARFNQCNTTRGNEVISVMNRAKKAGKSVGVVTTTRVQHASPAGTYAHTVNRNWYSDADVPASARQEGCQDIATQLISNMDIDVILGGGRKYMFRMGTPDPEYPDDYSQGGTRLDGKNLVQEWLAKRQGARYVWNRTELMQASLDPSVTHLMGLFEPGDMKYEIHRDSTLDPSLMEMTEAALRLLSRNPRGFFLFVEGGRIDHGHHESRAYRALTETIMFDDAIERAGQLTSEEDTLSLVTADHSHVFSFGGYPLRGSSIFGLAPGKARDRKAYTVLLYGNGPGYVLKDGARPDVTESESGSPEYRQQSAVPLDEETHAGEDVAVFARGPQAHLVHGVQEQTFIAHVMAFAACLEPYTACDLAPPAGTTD
Protocol: (§1) Human placental alkaline phosphatase and prostatic phosphatase were obtained commercially. Alkaline phosphatase was assayed in a reaction mixture containing 50 mM glycine NaOH, pH 10, MgCl2 and 1 mM PNPP; prostatic acid phosphatase was assayed in a reaction mixture containing 100 mM acetate, pH 5, 0.1 mM PNPP, and purified phosphotyrosyl protein phosphatase was assayed in 100 mM acetate, pH 5, 0.8 mM PNPP, 0.2 mg/ml BSA and 5 mM DTT. All assays were performed at 30°.
(§2) p-Nitrophenylphosphatase activity was determined in a final volume of […] containing 100 mM acetate, pH 5, 5 mM DTT, 2.5 mg/ml BSA and 1 mM PNPP. The reaction was carried out at 30° C. and terminated with 0.5 ml of 0.2N NaOH. Alkaline PNPP phosphatase activity was similarly determined except that 50 mM glycine NaOH, pH 10, was used as buffer and 10 mM MgCl2 was included in the reaction mixture. Absorption at 410 nm wavelength was recorded on a Gilson spectrophotometer. Units of phosphatase activity were calculated with a millimolar extinction coefficient of 17.5 for p-nitrophenol at 410 nm and pH 11.

[2] = target: T2, Human prostatic acid phosphatase (obtained commercially) (Homo sapiens, UniProt P15309); experiment: biochemical; settings: for % change of activity: compound at 10 μM; for % change of activity / inhibition at 10000 µM: 0.1 mM PNPP, 100 mM acetate pH 5, 30°; for inhibition at 10000 µM: compound at 10 mM, read-out: % change of activity
T2 construct: purchased Sigma; host or cells: human semen
T2 sequence (P15309 33-386): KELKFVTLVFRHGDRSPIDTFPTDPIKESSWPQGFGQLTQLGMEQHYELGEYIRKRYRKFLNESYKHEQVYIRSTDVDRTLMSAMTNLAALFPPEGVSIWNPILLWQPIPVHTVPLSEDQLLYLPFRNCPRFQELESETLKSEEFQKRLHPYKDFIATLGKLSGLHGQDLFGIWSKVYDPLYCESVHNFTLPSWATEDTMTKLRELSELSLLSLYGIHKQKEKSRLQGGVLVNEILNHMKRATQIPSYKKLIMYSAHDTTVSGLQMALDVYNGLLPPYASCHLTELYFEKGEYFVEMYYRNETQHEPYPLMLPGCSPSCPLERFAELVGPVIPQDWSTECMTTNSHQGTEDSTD
Protocol: as §1, §2

[3] = system: Purified phosphotyrosyl protein phosphatase from human placental membranes; assay type: biochemical
Protocol: as §1, §2

[4] = system: Purified phosphotyrosyl protein phosphatase from human placental membranes; assay type: biochemical; remark: listed apart in the source
Protocol: Phosphotyrosine phosphatase activity was measured by the release of ^32 Pi from ^32 P-Tyr-angiotensin II in a […] reaction mixture containing 0.1M acetate, pH 5, 5 mM DTT, 2.5 mg/ml BSA and 0.05 mM ^32 Pi of ^32 P-Tyr-angiotensin II. After incubation at 30° for 30 minutes, the reaction was terminated by the addition of […] of 10% TCA. 0.2 ml of 1.25 mM KH2 PO4 in 1N H2 SO4 was added as carrier. 0.1 ml of 5% ammonium molybdate was then added. After extraction with 0.5 ml of 1:1 isobutanol:benzene, 0.25 ml of the upper phase was taken and mixed with 10 ml Aquasol II to be counted in a packard scintillation counter.

[5] = compound at 10 μM, 0.8 mM PNPP, 100 mM acetate pH 5, 0.2 mg/ml BSA, 5 mM DTT, 30°
[6] = pH 10, read-out: % change of activity
[7] = pH 5, read-out: % change of activity
[8] = compound at 10 mM, 0.8 mM PNPP, 100 mM acetate pH 5, 0.2 mg/ml BSA, 5 mM DTT, 30°

What does the source list for `[O]=[V]([O-])([O-])[O-]` [vanadate]?
% change of activity [1]: -18.3%; % change of activity [2]: -87.8%; % change of activity [3, 5]: -38.2%; effect on PNPP phosphatase activity ([3]; compound at 100 μM): nearly completely inhibited; inhibition of 32P-Tyr-angiotensin II phosphatase activity ([4]; compound at 10 μM): 46.4%

How did the “% change of activity” value [1] turn out when molybdate was run?
Its value is 0%.

And the “% change of activity” value [2]?
Its value is -95.0%.

What about the “effect on PNPP phosphatase activity” value ([3]; compound at 10 μM) of the same compound?
The value was “nearly completely inhibited”.

And the “% change of activity” value [3, 5]?
The value was -96.4%.

What about the “inhibition of 32P-Tyr-angiotensin II phosphatase activity” value ([4]; compound at 10 μM) of the same compound?
The value was 20.8%.

What does the source list for `O=C(O)[C@H](O)[C@@H](O)C(=O)O` [L-tartrate]?
inhibition at 5000 µM [1, 6]: 10.4%; inhibition at 5000 µM [2, 7]: 97.6%; effect on PNPP phosphatase activity [3]: nearly completely inhibited; % change of activity ([3]; purified phosphotyrosyl protein phosphatase, pH 5, 5000 µM): -98.1%; inhibition of 32P-Tyr-angiotensin II phosphatase activity [4]: 27.6%

`N[C@@H](Cc1ccc(OP(=O)(O)O)cc1)C(=O)O` [p-tyrosine, phosphotyrosine] was tested. Which inhibition at 10000 µM [1] did it give?
The inhibition at 10000 µM was 85.6%.

And the inhibition at 10000 µM [2]?
The inhibition at 10000 µM was 24.4%.

What about the “% change of activity” value [3, 8] of the same compound?
Its value is -21.6%.

What about the “effect on PNPP phosphatase activity” value ([3]; concentration not given) of the same compound?
The value was “slightly inhibited”.

What about the “inhibition of 32P-Tyr-angiotensin II phosphatase activity” value ([4]; compound at 10 mM) of the same compound?
Its value is 11.5%.

How did the inhibition at 20000 µM [1, 6] turn out when `O=C(O)CN(CCN(CC(=O)O)CC(=O)O)CC(=O)O` [EDTA, Ethylene diamine tetraacetate] was run?
The inhibition at 20000 µM was 94%.

What about the “effect on PNPP phosphatase activity” value [2] of the same compound?
The value was “not affected”.

And the inhibition at 20000 µM [2, 7]?
The inhibition at 20000 µM was 2.2%.

What about the “stimulation of PNPP phosphatase activity” value [3] of the same compound?
Its value is 79%.

What about the “% change of activity” value ([3]; purified phosphotyrosyl protein phosphatase, pH 5, 20000 µM) of the same compound?
Its value is “+78.9%”.

What about the “stimulation of 32P-Tyr-angiotensin II phosphatase activity” value [4] of the same compound?
Its value is 29.8%.

`N[C@@H](COP(=O)(O)O)C(=O)O` [p-serine, phosphoserine] was tested. Which inhibition at 10000 µM [1] did it give?
The inhibition at 10000 µM was 92.6%.

What about the inhibition at 10000 µM [2] of the same compound?
Its inhibition at 10000 µM is 19%.

And the “effect on PNPP phosphatase activity” value ([2]; concentration not given)?
Its value is “slightly inhibited”.

What about the “% change of activity” value [3, 8] of the same compound?
The value was “+73.4%”.

And the “stimulation of PNPP phosphatase activity” value ([3]; text summary of Table I, phosphoserine 10 mM per table)?
The value was 73%.

And the “stimulation of 32P-Tyr-angiotensin II phosphatase activity” value ([4]; compound at 10 mM)?
The value was 4.3%.
